Reference: PubChem BioAssay AID330 (DTP/NCI, 2004)
Values joined by “and” are separate entries in the source; they are usually repeats but may differ in a detail not shown here. Equal values may be shown once. Toxic doses and inconclusive results are not listed. Rule for the calls: active = survival T/C of 150% or more; inactive = T/C below 125% in these data.

System: P388 leukemia ip, CD2F1 mice, survival T/C
Experiment: NCI In Vivo Anticancer Drug Screen. Data for tumor model P388 Leukemia (intraperitoneal) in CD2F1 (CDF1) mice
Settings: endpoint: median survival time, higher = longer survival
Method in brief: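 Mice carrying the transplanted tumor received test compound or vehicle. Survival was recorded in each group, and the value is the treated-group measurement divided by that of the vehicle-treated control group.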

[1] = dose: 25.0 mg/kg/injection, schedule: Q01DX009 (ip), vehicle: saline with Tween-80
[2] = dose: 50.0 mg/kg/injection, schedule: Q01DX009 (ip), vehicle: saline with Tween-80
[3] = dose: 25.0 mg/kg/injection, schedule: Q01DX009 (ip), vehicle: saline
[4] = dose: 100.0 mg/kg/injection, schedule: Q01DX009 (ip), vehicle: saline
[5] = dose: 100.0 mg/kg/injection, schedule: Q01DX009 (ip), vehicle: saline with Tween-80

Measured: T/C

CN(C)CCSC1=Nc2ccc(Cl)cc2C(c2ccccc2Cl)N(C)C1 (stereo unspecified)
inactive: dose: 60.0 mg/kg/injection, schedule: Q01DX005 (ip), vehicle: Klucel (hydroxypropylcellulose) (HPC) 100 % of control | dose: 120.0 mg/kg/injection, schedule: Q01DX005 (ip), vehicle: Klucel (hydroxypropylcellulose) (HPC) 100 % of control

CCOC(=S)NS(=O)(=O)c1ccccc1
inactive: dose: 6.25 mg/kg/injection, schedule: Q01DX009 (ip), vehicle: saline with Tween-80 107 % of control | dose: 12.5 mg/kg/injection, schedule: Q01DX009 (ip), vehicle: saline with Tween-80 102 % of control | [1] 109 % of control | [2] 116 % of control

O=C1c2ccccc2C(=O)c2c(NC(=O)C(F)(F)F)cccc21
inactive: dose: 12.5 mg/kg/injection, schedule: Q01DX005 (ip), vehicle: Klucel (hydroxypropylcellulose) (HPC) 96 % of control | dose: 25.0 mg/kg/injection, schedule: Q01DX005 (ip), vehicle: Klucel (hydroxypropylcellulose) (HPC) 93 % of control | dose: 50.0 mg/kg/injection, schedule: Q01DX005 (ip), vehicle: Klucel (hydroxypropylcellulose) (HPC) 87 % of control and 89 % of control

O=C(O)C(=O)O.O=C(O)C(=O)O.O=C(O)C(=O)O.[Co]
inactive: dose: 6.25 mg/kg/injection, schedule: Q04DX002 (ip), vehicle: saline 91 % of control | dose: 12.5 mg/kg/injection, schedule: Q04DX002 (ip), vehicle: saline 100 % of control | dose: 25.0 mg/kg/injection, schedule: Q04DX002 (ip), vehicle: saline 91 % of control

Cn1c(-c2ccccc2)c2c(c1-c1ccccc1)C(=O)c1ccccc1C2=O
inactive: dose: 50.0 mg/kg/injection, schedule: Q01DX009 (ip), vehicle: Klucel (hydroxypropylcellulose) (HPC) 95 % of control | dose: 100.0 mg/kg/injection, schedule: Q01DX009 (ip), vehicle: Klucel (hydroxypropylcellulose) (HPC) 101 % of control | dose: 200.0 mg/kg/injection, schedule: Q01DX009 (ip), vehicle: Klucel (hydroxypropylcellulose) (HPC) 100 % of control

Cn1c(=O)c2[nH]c(/N=N/N(CCCl)CCCl)nc2n(C)c1=O
inactive: [3] 100 % of control | dose: 50.0 mg/kg/injection, schedule: Q01DX009 (ip), vehicle: saline 100 % of control | [4] 104 % of control | dose: 200.0 mg/kg/injection, schedule: Q01DX009 (ip), vehicle: saline 107 % of control | dose: 400.0 mg/kg/injection, schedule: Q01DX009 (ip), vehicle: saline 96 % of control

CO[C@H]1/C=C/O[C@@]2(C)Oc3c(C)c(O)c4c(O)c(c(/C=N/N5CCN(C)CC5)c(O)c4c3C2=O)NC(=O)/C(C)=C\C=C\[C@H](C)[C@H](O)[C@@H](C)[C@@H](O)[C@@H](C)[C@H](OC(C)=O)[C@@H]1C
inactive: dose: 25.0 mg/kg/injection, schedule: Q01DX009 (ip), vehicle: other 92 % of control | [1] 100 % of control | dose: 25.0 mg/kg/injection, schedule: Q04DX003 (ip), vehicle: distilled water + Tween-80 106 % of control | dose: 25.0 mg/kg/injection, schedule: Q04DX003 (ip), vehicle: other 99 % of control and 97 % of control | dose: 50.0 mg/kg/injection, schedule: Q01DX009 (ip), vehicle: other 98 % of control | [2] 100 % of control | dose: 50.0 mg/kg/injection, schedule: Q04DX003 (ip), vehicle: distilled water + Tween-80 105 % of control and 110 % of control | dose: 50.0 mg/kg/injection, schedule: Q04DX003 (ip), vehicle: other 106 % of control and 109 % of control | dose: 100.0 mg/kg/injection, schedule: Q01DX009 (ip), vehicle: other 89 % of control | [5] 100 % of control | dose: 100.0 mg/kg/injection, schedule: Q04DX003 (ip), vehicle: distilled water + Tween-80 96 % of control and 97 % of control | dose: 100.0 mg/kg/injection, schedule: Q04DX003 (ip), vehicle: other 107 % of control and 115 % of control | dose: 100.0 mg/kg/injection, schedule: Q04DX003 (ip), vehicle: saline sonified 95 % of control | dose: 200.0 mg/kg/injection, schedule: Q01DX009 (ip), vehicle: other 107 % of control | dose: 200.0 mg/kg/injection, schedule: Q04DX003 (ip), vehicle: distilled water + Tween-80 106 % of control | dose: 200.0 mg/kg/injection, schedule: Q04DX003 (ip), vehicle: other 110 % of control | dose: 200.0 mg/kg/injection, schedule: Q04DX003 (ip), vehicle: saline sonified 104 % of control | dose: 400.0 mg/kg/injection, schedule: Q04DX003 (ip), vehicle: distilled water + Tween-80 103 % of control | dose: 400.0 mg/kg/injection, schedule: Q04DX003 (ip), vehicle: saline sonified 109 % of control

CCCCCCC1(/C=C/c2ccc(Cl)c(Cl)c2)SCCS1
inactive: dose: 12.0 mg/kg/injection, schedule: Q01DX009 (ip), vehicle: saline with Tween-80 100 % of control | dose: 12.5 mg/kg/injection, schedule: Q01DX009 (ip), vehicle: saline 105 % of control | [1] 107 % of control | [3] 102 % of control | [2] 104 % of control | [5] 100 % of control | [4] 102 % of control and 90 % of control
